Nine compounds from PubChem BioAssay (NCI) can be followed below.

Holding throughout (assay): NCI anticancer screen, dose series, 48 h
For test [1], the system named is 786-0 renal.
The test system of test [2] is ACHN renal.
The test system of test [3] is HOP-62 NSCLC.
Test [4] concerns KM12 colon.
The test system of test [5] is MCF7 breast.
The subject of test [6] is MDA-MB-435.
Test [7] relates to NCI-H23 lung.
Test [8] concerns SF-295 CNS.
Test [9] concerns SNB-75 CNS.
The test system of test [10] is SR leukemia.

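Where inhibition never reached the appropriate level, the endpoint shown equals the highest concentration tested. Otherwise, values were interpolated linearly from a five-concentration, 48-hour dose response in 96-well plates. GI50 marks 50% less growth. At the TGI there is no net growth.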 Some results are limits rather than exact numbers.

As to `CN1CCN(Cc2ccc(NC(=O)c3cncc(C#Cc4ccc(N)nc4)c3)cc2C(F)(F)F)CC1`, the GI50 is 1.76 µM in test [1]; 0.461 µM in test [2]; 1.3 µM in test [3]; 0.0227 µM in test [4]; 1.23 µM in test [5]; 1.09 µM in [6]. Moreover, the GI50 in [7] was 1.3 µM; in [8] it was 1.23 µM; in test [9], 1.06 µM; in test [10], 0.679 µM. In addition, the TGI in test [1] stood at 6.83 µM; in [2], 4.4 µM; in test [3], 6.08 µM; in [4], 5.3 µM; in test [5], 7.22 µM; in test [6] it was 5.68 µM. For the same compound, the TGI was found to be 6.27 µM in test [7], 4.79 µM in test [8], 3.53 µM in test [9] and 3.51 µM in test [10].
With `NC1CC(=O)c2c(-c3cccs3)sc(-c3cccs3)c21` (stereo not given), the GI50 in [1] was 11.7 µM; in test [2], 10 µM; in test [3] it was 73.4 µM; in test [4] it was 25 µM; in [5], 16.9 µM; in test [6], 38.8 µM. In addition, the GI50 in test [7] is 23.1 µM; in test [8], 85.4 µM; in [9] it was 22.6 µM; in test [10], 7.03 µM. Moreover, the TGI in test [1] is more than 100 µM; in test [2], 25.5 µM; in [3] it was more than 100 µM; in [4], more than 100 µM; in test [5] it was 44.4 µM; in [6], more than 100 µM. Further, the TGI was 57.6 µM in test [7], more than 100 µM in test [8], 89.8 µM in test [9] and more than 100 µM in test [10].
Regarding `Cc1ccc2ccccc2c1CSc1nc(N)nc2c1ncn2CC(C)C`, the TGI in [1] is more than 100 µM; in test [2] it was more than 100 µM; in [3], more than 100 µM; in [4], more than 100 µM; in test [5] it was more than 63.9 µM; in test [6], more than 84.4 µM. Also, the TGI in [7] is more than 100 µM; in test [8] it was more than 100 µM; in test [9], more than 100 µM; in test [10] it was 50.6 µM.
In the case of `Cc1ccc(NC(=O)COc2ccc(Cl)cc2)cc1Cl`, the TGI in test [1], in test [2], in test [3], in test [4], in test [5] and in test [6] was more than 100 µM each time. Further, the TGI in [7] was 74.9 µM; in [8], more than 100 µM; in [9], more than 100 µM; in [10], 69.7 µM.
With `C=C1C(=O)O[C@@H]2/C=C(/C)[C@@H](OC(C)=O)C[C@@H](O)/C(C)=C\[C@@H](OC(=O)[C@]3(C)O[C@@H]3C)[C@@H]12`, the TGI was 15.8 µM in [1]; 26.8 µM in test [2]; more than 100 µM in [3]; 36.3 µM in [4]; 18.1 µM in test [5]; 28.8 µM in [6]. For the same compound, the TGI was 35.6 µM in [7], more than 100 µM in test [8], 37.6 µM in test [9] and 21.5 µM in [10].
As for `O=C(Nc1cccc([N+](=O)[O-])c1)c1cccc(C(=O)Nc2cccc([N+](=O)[O-])c2)c1`, the GI50 in test [1] was 25.6 µM; in test [2] it was more than 100 µM; in test [3] it was 21.9 µM; in [4], more than 100 µM; in [5], more than 100 µM; in test [6], more than 100 µM. The GI50 was more than 72.4 µM in test [7], 23.2 µM in [8], 8.42 µM in [9] and more than 100 µM in test [10]. The TGI in test [1] is more than 100 µM; in test [2], more than 100 µM; in [3], more than 70.5 µM; in test [4], more than 100 µM; in [5], more than 100 µM; in test [6], more than 100 µM. Also, the TGI in test [7] was more than 100 µM; in test [8], more than 90.4 µM; in [9] it was 72.2 µM; in test [10], more than 100 µM.
As to `N#C/C(=C\c1ccc[nH]1)c1cc(-c2ccc(Cl)cc2)nn1-c1ccccc1`, the GI50 is 6.06 µM in test [1]; 5.55 µM in test [2]; 7.63 µM in [3]; 2.68 µM in test [4]; 0.449 µM in test [5]; 2.7 µM in test [6]. For the same compound, the GI50 in [7] was 4.19 µM; in test [8] it was 2.8 µM; in test [9], 2.29 µM; in [10], 1.97 µM. The TGI in test [1] was 27.5 µM; in test [2] it was 47.5 µM; in test [3], 24.2 µM; in test [4], 11.6 µM; in [5], 19.7 µM; in [6], 13.2 µM. For the same compound, the TGI in test [7] was determined as 22.1 µM; in test [8], 13 µM; in [9], 16 µM; in test [10], 6.28 µM.
For `Cc1cc(N(CCC#N)S(=O)(=O)c2ccccc2)ccc1C=Nc1ccc(C(=O)O)cc1`, the TGI in [1] is 16.1 µM; in test [2], more than 33.2 µM; in [3], 46 µM; in [4], 42.6 µM; in test [5] it was more than 100 µM; in [6] it was more than 100 µM. In addition, the TGI in [7] was 33.9 µM; in [8] it was 44.8 µM; in test [9], 29.1 µM; in test [10], more than 40.9 µM.
Take `CC1(C)OCC2OC(n3cnc4c(N)nc(Cl)nc43)C(OS(C)(=O)=O)C2O1` (stereo not given): the TGI in test [1], in test [2], in test [3], in test [4], in test [5] and in test [6] was more than 100 µM each time. In addition, the TGI in test [7], in test [8], in [9] and in test [10] was more than 100 µM each time.
